Results from patent US12673973B2, “Peptide having blood coagulation activity, and use thereof” (CAREGEN CO, LTD., priority 2021, dated 2026).
Peptide text beside a SMILES is read from it.

Legend:
[1] = system: red blood cells; assay: Hemolysis test; type: cell-based, rat; conditions: 1 hour 37° C.
Description: Furthermore, it was confirmed whether hemolysis, in which blood cells are destroyed, occurs by treatment with the peptide of the present invention. In a state where the coagulation reaction of the collected rat blood was suppressed in a heparinized vacuum collection tube, it was transferred to an EP tube and centrifuged at 1,500 g for 10 minutes. After removing the supernatant plasma, the precipitated red blood cells were treated with 200 μl of 2.5% and 5% of the peptide of the present invention, respectively. A sample treated with 1% SDS was used as a positive control for hemolysis. Each sample was stored for 1 hour in a 37° C. incubator, and then centrifuged again at 1,500 g for 10 minutes. 200 μl of the supernatant was transferred to a 96-well plate, and the optical density was measured at a wavelength of 540 nm.

[2] = system: rat blood; assay: Blood coagulation test: clotting time by tube inversion; type: cell-based; conditions: 300 μl heparinized rat blood + 150 μl sample, peptides at 2.5%
Description: First, the clotting time of blood according to the treatment of the peptide of the present invention was evaluated. In a state where the coagulation reaction of the collected rat blood was suppressed in a heparinized vacuum collection tube, 300 μl of blood was transferred to an EP tube, and 150 μl of a solution in which the peptide of the present invention was dissolved in purified water was treated thereto. The clotting time was measured by inverting the tube at 10-second intervals and visually evaluating the flowability of the blood. As a control group, the RADA16 peptide sample and Greenplast (Greenplast Q, GC Green Cross) were used to conduct the experiment in the same manner as the peptide of the present invention.

[3] = system: rat blood; assay: Blood coagulation test: optical density of supernatant; type: cell-based; conditions: heparinized rat blood, CaCl2 added, 37° C. 10 minutes
Description: In addition, in order to evaluate the coagulation efficacy of the peptide of the present invention, the peptide of the Preparation Example was treated with rat blood, and its optical density was measured. Specifically, in a state where the coagulation reaction of the collected rat blood was suppressed in a heparinized vacuum collection tube, 300 μl of blood was transferred to a 15 ml conical tube, and 300 μl of the peptide of the present invention solution was added thereto and mixed gently. Then, 30 μl of 0.2 M CaCl2 solution was added thereto and incubated at 37° C. for 10 minutes to accelerate the coagulation reaction. Then, 10 ml of distilled water was carefully added thereto, and 200 μl of the uniformly dispersed supernatant was added to a 96-well plate, and the optical density was measured at a wavelength of 540 nm using a spectrophotometer. Likewise, Greenplast and RADA16 peptide preparations were used as controls.

With `CC[C@H](C)[C@H](NC(=O)[C@H](CC(N)=O)NC(=O)CNC(=O)[C@H](C)NC(=O)[C@H](CC(C)C)NC(=O)[C@H](Cc1ccc(O)cc1)NC(=O)[C@H](C)NC(=O)[C@H](CCC(N)=O)NC(=O)[C@H](CO)NC(=O)[C@H](C)NC(=O)[C@@H](N)CO)C(=O)N[C@H](C(=O)O)[C@@H](C)O` [Peptide of the present invention, SASQAYLAGNIT] (H-SASQAYLAGNIT-OH) the “hemolysis (optical density of supernatant at 540 nm)” value (“hemolysis” below) ([1]; 2.5% peptide, 200 μl) was “did not induce hemolysis” and the “hemolysis” value ([1]; 5% peptide, 200 μl) was “did not induce hemolysis”.

`CCCCCCCCCCCCOS(=O)(=O)[O-].[Na+]` [SDS] was tested, and the “hemolysis” value ([1]; 1% SDS positive control) was “hemolysis occurred”.

In the case of RADA16, the “Blood Clotting time” value [2] is reported as under 30 s, the “Blood Clotting time” value ([2]; listed as RADA16 peptide) is reported as “less than 30 sec” and the “optical density (540 nm) of supernatant relative to negative control treated with distilled water” value [3] is reported as 0.7.
